Results published in PubChem BioAssay AID2061108 (Research group of Professor Matthew Todd, School of …, 2025).
Calls of active or inactive are those of the source. The rule behind the calls is not given here.

system: A. baumannii ATCC 17978 growth inhibition, 100 uM; assay: microbial growth inhibition plus red cell haemolysis – Idler compounds, first plate, PMBN-permeabilized strains, profiling panel (AID 2061108); settings: S. aureus ATCC 9144 growth inhibition; measured here: A. baumannii ATCC 17978; at 100 µM; stronger effect = higher value

| SMILES | inhibition [%] |
| --- | --- |
| FC(F)Oc1ccc(-c2nnc3cncc(OCCCC(F)(F)F)n23)cc1 | -14.8 |
| Cc1ccc(N2CN(CC(=O)Nc3ccccc3Cl)S(=O)(=O)c3cccnc32)cc1 | -6.75 |
| O=C(Nc1ccc(Oc2ccccc2)cc1)c1ccc(-c2nn[nH]n2)nc1 | -1.31 |
| O=C(Nc1cccc(C(F)(F)F)c1)C(Cl)C(=O)c1ccccc1 (stereo not drawn) | 46.6 |
| N#Cc1ccc(NC2Cc3cccc(O)c3C2)cc1C(F)(F)F (stereo not drawn) | 68.5 |
| O=C(O)c1cc(-c2ccco2)on1 | -3.73 |
| O=C(N/N=C/c1cnc(C(F)(F)F)nc1)c1ccncc1 | 10.4 |
| COc1ccc2c(c1)nc(-c1ccc[nH]1)c1[nH]ccc12 | 34.2 |
| N#CC1(c2cccc(-c3cccc4c3CCOC4C(=O)O)c2)CC1 (stereo not drawn) | -4.34 |
| Cc1ccn2c(=O)nc(SCC(=O)OCc3ccccc3)nc2c1 | 0.238 |
| O=C(c1ccccc1)c1ccc(NS(=O)(=O)c2cccc(Cl)c2)cc1 | 15.2 |
| O=S(=O)(NC1(Cc2ccc(Cl)cc2Cl)CCC1)c1ccc(-c2nn[nH]n2)cc1 | 22.7 |
| O=c1[nH]c(=O)c2cc(S(=O)(=O)Nc3cc(F)c(NCCN4CCOCC4)c(F)c3)ccc2[nH]1 | -1.9 |
| O=C(Nc1ccc(Oc2ccccc2)cc1)c1cccc(-c2nn[nH]n2)c1 | -3.57 |

system: S. aureus ATCC 9144 growth inhibition, 100 uM; assay: as above; settings: S. aureus ATCC 9144 growth inhibition; at 100 µM; stronger effect = higher value

| SMILES | inhibition |
| --- | --- |
| N#Cc1c(NC[C@H]2CCCN2)nc2ccccc2c1C(F)(F)F | 99.7% |
| C=CC(=O)N1CCCc2c(C(=O)O)cccc21 | 17% (inactive) |
| CC(C)C(N)C(=O)NS(=O)(=O)c1cccc(-c2cc3ncnc(N)c3s2)c1 (stereo not drawn) | -22.3% (inactive) |
| Nc1ncnc2cc(-c3cccc(S(=O)(=O)NC(=O)C(N)Cc4ccccc4)c3)sc12 (stereo not drawn) | -16.5% (inactive) |
| N#Cc1c(N2Cc3cccc(O)c3C2)nc2ccccc2c1C(F)(F)F | 97% |
| COc1ccc(/C=C(\C#N)S(=O)(=O)c2ccccc2)cc1OC | 16.3% (inactive) |
| Nc1ncnc2cc(-c3cccc(S(=O)(=O)NC(=O)C(N)CC(=O)O)c3)sc12 (stereo not drawn) | 15.7% (inactive) |
| COc1cc2nc(N3CCC(N(C)C)C3)nc(N3CCN(C(=O)OC(C)(C)C)CC3)c2cc1OC (stereo not drawn) | 7.89% (inactive) |
| Cc1cccc(C)c1OCC(O)CSc1ccccn1 (stereo not drawn) | -7.89% (inactive) |
| CCC(C)NS(=O)(=O)CCCOc1ccc(F)cc1 (stereo not drawn) | 10.3% (inactive) |
| O=c1[nH]c(=O)c2cc(S(=O)(=O)Nc3cc(F)c(N4CCC(N5CCOCC5)CC4)c(F)c3)ccc2[nH]1 | 14.7% (inactive) |
| O=S(=O)(Nc1ccc(Oc2ccccc2)cc1)c1ccc(-c2nn[nH]n2)cc1 | 70% (inactive) |
| CCCOc1cc(S(=O)(=O)n2cccn2)ccc1Br | -33.2% (inactive) |
| Nc1ncnc2cc(-c3cccc(S(N)(=O)=O)c3)sc12 | 27.3% |
| FC(F)Oc1ccc(-c2nnc3cncc(OCCCC(F)(F)F)n23)cc1 | -9.47% (inactive) |
| Cc1ccc(N2CN(CC(=O)Nc3ccccc3Cl)S(=O)(=O)c3cccnc32)cc1 | -17.7% (inactive) |
| O=C(Nc1ccc(Oc2ccccc2)cc1)c1ccc(-c2nn[nH]n2)nc1 | 15% (inactive) |
| O=C(Nc1cccc(C(F)(F)F)c1)C(Cl)C(=O)c1ccccc1 (stereo not drawn) | 101% |
| N#Cc1ccc(NC2Cc3cccc(O)c3C2)cc1C(F)(F)F (stereo not drawn) | 99.7% |
| O=C(O)c1cc(-c2ccco2)on1 | 20.4% (inactive) |
| O=C(N/N=C/c1cnc(C(F)(F)F)nc1)c1ccncc1 | 16.7% (inactive) |
| COc1ccc2c(c1)nc(-c1ccc[nH]1)c1[nH]ccc12 | 102% |
| N#CC1(c2cccc(-c3cccc4c3CCOC4C(=O)O)c2)CC1 (stereo not drawn) | -2.28% (inactive) |
| Cc1ccn2c(=O)nc(SCC(=O)OCc3ccccc3)nc2c1 | 7% (inactive) |
| O=C(c1ccccc1)c1ccc(NS(=O)(=O)c2cccc(Cl)c2)cc1 | 64.6% |
| O=S(=O)(NC1(Cc2ccc(Cl)cc2Cl)CCC1)c1ccc(-c2nn[nH]n2)cc1 | 17% (inactive) |
| O=c1[nH]c(=O)c2cc(S(=O)(=O)Nc3cc(F)c(NCCN4CCOCC4)c(F)c3)ccc2[nH]1 | 17.7% (inactive) |
| O=C(Nc1ccc(Oc2ccccc2)cc1)c1cccc(-c2nn[nH]n2)c1 | 9.5% (inactive) |

system: E. coli NCTC 12923 + PMBN growth inhibition, 100 uM; assay: as above; settings: S. aureus ATCC 9144 growth inhibition; measured here: E. coli plus PMBN; at 100 µM; stronger effect = higher value

| SMILES | inhibition [%] |
| --- | --- |
| N#Cc1c(NC[C@H]2CCCN2)nc2ccccc2c1C(F)(F)F | 17.7 |
| C=CC(=O)N1CCCc2c(C(=O)O)cccc21 | -5.12 |
| CC(C)C(N)C(=O)NS(=O)(=O)c1cccc(-c2cc3ncnc(N)c3s2)c1 (stereo not drawn) | -17.2 |
| Nc1ncnc2cc(-c3cccc(S(=O)(=O)NC(=O)C(N)Cc4ccccc4)c3)sc12 (stereo not drawn) | -18.8 |
| N#Cc1c(N2Cc3cccc(O)c3C2)nc2ccccc2c1C(F)(F)F | 35.4 |
| COc1ccc(/C=C(\C#N)S(=O)(=O)c2ccccc2)cc1OC | 3.58 |
| Nc1ncnc2cc(-c3cccc(S(=O)(=O)NC(=O)C(N)CC(=O)O)c3)sc12 (stereo not drawn) | 8.15 |
| COc1cc2nc(N3CCC(N(C)C)C3)nc(N3CCN(C(=O)OC(C)(C)C)CC3)c2cc1OC (stereo not drawn) | 10.1 |
| Cc1cccc(C)c1OCC(O)CSc1ccccn1 (stereo not drawn) | 59.6 |
| CCC(C)NS(=O)(=O)CCCOc1ccc(F)cc1 (stereo not drawn) | -9.51 |
| O=c1[nH]c(=O)c2cc(S(=O)(=O)Nc3cc(F)c(N4CCC(N5CCOCC5)CC4)c(F)c3)ccc2[nH]1 | 1.59 |
| O=S(=O)(Nc1ccc(Oc2ccccc2)cc1)c1ccc(-c2nn[nH]n2)cc1 | 21.7 |
| CCCOc1cc(S(=O)(=O)n2cccn2)ccc1Br | -8.29 |
| Nc1ncnc2cc(-c3cccc(S(N)(=O)=O)c3)sc12 | 91.6 |
| FC(F)Oc1ccc(-c2nnc3cncc(OCCCC(F)(F)F)n23)cc1 | -9.02 |
| Cc1ccc(N2CN(CC(=O)Nc3ccccc3Cl)S(=O)(=O)c3cccnc32)cc1 | -25.9 |
| O=C(Nc1ccc(Oc2ccccc2)cc1)c1ccc(-c2nn[nH]n2)nc1 | 10.6 |
| O=C(Nc1cccc(C(F)(F)F)c1)C(Cl)C(=O)c1ccccc1 (stereo not drawn) | 100 |
| N#Cc1ccc(NC2Cc3cccc(O)c3C2)cc1C(F)(F)F (stereo not drawn) | 100 |
| O=C(O)c1cc(-c2ccco2)on1 | 3.29 |
| O=C(N/N=C/c1cnc(C(F)(F)F)nc1)c1ccncc1 | 11.2 |
